From US20150352034A1, “Personal Care Products Containing Microalgae or Extracts Thereof” (Solazyme, Inc., priority 2014, published 2015)

How the values were obtained:
MatTek's EpiDerm tissue = assay: UVB protection assay, MTT tissue viability; assay type: cell-based, human; settings: 300 mJ/cm^2 UVB, then 1 mM, 100 μl topically for 24 hours; in % (unit assumed)
Procedure: MatTek's EpiDerm tissue, a skin model that consists of normal human-derived epidermal keratinocytes cultured to form a multilayered, highly differentiated model of the human epidermis, was used to measure changes in tissue viability. The tissues were exposed to 300 mJ/cm^2 of UVB radiation and subsequently topically treated with the aforementioned test materials over a period of 24 hours. Materials were tested for their abilities to either maintain tissue viability after UVB exposure or aid in the recovery of tissue damaged by UVB radiation. […] The MTT analysis involved a colorimetric analysis of tissue metabolic activity, the increased presence of color indicating the presence of metabolically-active living cells. Reduction of MTT by mitochondria in viable cells results in purple formazin crystals; the intensity of the purple color is directly proportional to metabolically active cells in the tissue. The tissues were stored at 4° C. until used. […] One gram of WAF was mixed with 10 ml of water for one hour at room temperature. The WAF-water mixture was then centrifuged for 5 minutes to pellet any undissolved material and the supernatant was used for topical application. The Sample B, Sample F, and Sample A were applied topically without any further processing. […] Reduced MTT was subsequently extracted from the tissues and colorimetrically analyzed at 540 nm to determine tissue viability.

[1] = system: thymine dimers in genomic DNA of MatTek's EpiDerm tissue; assay: Thymine dimer formation after UVB; assay type: cell-based, human; settings: 300 mJ/cm^2 UVB, then 1 mM, 100 μl topically for 24 hours
Procedure: This method was designed to evaluate changes in tissue DNA thymine dimer content after exposure to UVB. The testing system used for this assay was MatTek's EpiDerm tissue, a skin model that consists of normal human-derived epidermal keratinocytes cultured to form a multilayered, highly differentiated model of the human epidermis. For this study, the tissues were exposed to UVB (300 mJ/cm^2) and then treated topically for 24 hours with the test material. Following the treatment the DNA was extracted from the EpiDerm tissues and assayed for thymine dimer content. For the assay, samples of the DNA were immobilized on a solid membrane support and incubated with an antibody that recognizes thymine dimers in double stranded DNA. The primary antibody was then detected using a secondary antibody conjugated to a fluorescent dye. The membrane was then scanned using an excitation laser and emission filter combination appropriate for the fluorescent dye. With this method, the fluorescence intensity of each sample is proportional to the amount of the thymine dimers present in the sample. […] UVB lamp intensity was measured using a UVX radiometer with a probe specific for UVB (detects 260-360 nm, max absorbance at 310 nm, calibrated at 310 nm) to determine exposure times required for the appropriate UVB dose. […] Extracted DNA was quantified via a fluorometric assay. […]

[2] = system: procollagen synthesis in fibroblasts; assay: Type I Collagen Assay (type I C-peptide ELISA, fibroblast culture medium); assay type: cell-based; settings: 48 h
Procedure: (§1) The type I C-peptide fragment was measured because procollagen, a precursor to mature collagen, is cleaved in collagen and type I C-peptide fragments in a 1:1 ratio. By measuring the amount of type I C-peptide fragments in the tissue medium, collagen production was measured. Elastin was measured directly from the cell culture medium. Hyaluronic acid was measured in the tissue culture media. All measurements were performed using an ELISA based method.
(§2) Powder materials were prepared by combining 1 gram of the powder material with either 10 ml ultrapure water or 10 ml of DMSO. The mixtures were incubated for one hour at room temperature on a rocking platform to saturate the extraction medium with the test material. The mixture was then centrifuged to separate the saturated extract solution from the undissolved solid materials. The oil based materials were prepared as a stock solution in DMSO and then diluted into the culture media such that the final concentration of DMSO was 1%. A 1% DMSO control was included to account for any effect the solvent might have when evaluating the effect of the oils or DMSO prepared powders. […]
A series of type I C-peptide standards were prepared ranging from 0 ng/ml to 640 ng/ml for the procollagen assay. […] After the incubation 100 μl of stop solution (1 N sulfuric acid) was added to each well and the plate was read using a microplate reader at 450 nm.

[3] = system: elastin synthesis in fibroblasts; assay: Elastin Assay (ELISA, fibroblast culture medium); assay type: cell-based; settings: 48 h
Procedure: as §1, §2
A set of alpha-elastin standards was generated ranging from 0 to 100 ng/ml. […] After the final incubation, the plate was read at 460 nm using a plate reader.

[4] = system: hyaluronic acid synthesis in fibroblasts; assay: Hyaluronic Acid Assay (ELISA, fibroblast culture medium); assay type: cell-based
Procedure: as §1
Powder materials were prepared by combining 1 gram of the powder material with either 10 ml ultrapure water or 10 ml of DMSO. The mixtures were incubated for one hour at room temperature on a rocking platform to saturate the extraction medium with the test material. The mixture was then centrifuged to separate the saturated extract solution from the undissolved solid materials. The oil based materials were prepared as a stock solution in DMSO and then diluted into the culture media such that the final concentration of DMSO was 1%. A 1% DMSO control was included to account for any effect the solvent might have when evaluating the effect of the oils or DMSO prepared powders.
The fibroblast cell culture was prepared by seeding fibroblasts into the individuals wells of a 24-well plate in 0.5 ml of Fibroblast Growth Media (FGM) and incubated overnight at 37±2° C. and at 5±1% CO2. The media was removed via aspiration to eliminate non-adherent cells and replaced with 0.5 ml of fresh FGM. The medium was changed every 48 to 72 hours until the cells growth reached confluency. Once confluent, the cells were treated for 24 hours with DMEM supplemented with 1.5% FBS to wash out any growth factors present in the normal culture media.
The prepared fibroblast cell cultures were then treated with the prepared test materials at the aforementioned concentrations dissolved in FGM with 1.5% FBS. TGF-B at a concentration of 50 ng/ml was used as a positive control for collagen and elastin, and dibutyrl cAMP at a concentration of 0.1 mM was used as a positive control for hyaluronic acid. Untreated cells received DMEM with 1.5% FBS. The cells were incubated for 48 hours and then either frozen or assayed immediately. Materials were tested in triplicate.
A series of hyaluronic acid standards was prepared ranging from 50 ng/ml to 3,200 ng/ml. Next, 100 μl of each standard (in duplicate) and sample was transferred to a well in an incubation plate. After adding 50 μl of detection solution to each well (except the reagent blank wells) the plate was incubated for 1±0.25 hour at 37±2° C. […] After this final incubation 50 μl of stop solution was added to each well and the absorbance of the plate was measured at 405 nm using a plate reader.

**Q.** Which results are given for `Cc1c(C)c2c(c(C)c1O)CCC(C)(C(=O)O)O2` (stereo not shown) [Trolox, 6-hydroxy-2,5,7,8-tetramethylchroman-2-carboxylic acid]?
**A.** Viability (MatTek's EpiDerm tissue): 98 ± 5.6; Thymine Dimer Formation [1]: 296.5 ± 12.2 ng/mL

**Q.** How did the “Type I C-Peptide” value ([2]; 0.1 mM) turn out when `CCCC(=O)Nc1ncnc2c1ncn2[C@@H]1O[C@@H]2COP(=O)(O)O[C@H]2[C@H]1OC(=O)CCC` [dBcAMP, dibutyrl cAMP] was run?
**A.** The value was 3438 ± 277 ng/mL.

**Q.** And the Elastin ([3]; 0.1 mM)?
**A.** The Elastin was 43 ± 16 ng/mL.

**Q.** And the “Hyaluronic Acid” value ([4]; Table Va, 0.1 mM, 48 h)?
**A.** Its value is 494 ± 51 ng/mL.

**Q.** What about the “Hyaluronic Acid” value ([4]; Table Vb, 0.1 mM) of the same compound?
**A.** Its value is 547 ± 31 ng/mL.

**Q.** Which “Type I C-Peptide” value ([2]; 50 ng/ml) does the source give for TGF-B here?
**A.** The value was 5282 ± 178 ng/mL.

**Q.** And the Elastin ([3]; 50 ng/ml)?
**A.** The Elastin was 178 ± 6 ng/mL.

**Q.** And the “Hyaluronic Acid” value ([4]; Table Va, 50 ng/ml, 48 h)?
**A.** The value was 260 ± 34 ng/mL.

**Q.** And the “Hyaluronic Acid” value ([4]; Table Vb, 50 ng/ml)?
**A.** Its value is 528 ± 96 ng/mL.
